According to patent US20240190862A1 (AMGEN INC., priority 2019, published 2024):
Read-outs that look alike come from different tables or passages of the source.

Columns and labels:
[1] = molecular target: GDP-bound KRAS protein (aa 1-169) G12D/C118A (Homo sapiens (Human), UniProt P01116, C118A/G12D); assay: Coupled Nucleotide Exchange Assay (KRAS G12D); format: biochemical; settings: 20 h compound pre-incubation; read-out: GDP KRAS G12D 20 h Coupled Exchange IC50 IP
Method: (§1) Coupled Nucleotide Exchange Assay: Purified GDP-bound KRAS protein (aa 1-169), containing either G12C or G12D, as well as C118A amino acid substitutions and an N-terminal His-tag, was pre-incubated in assay buffer (25 mM HEPES pH 7.4, 10 mM MgCl2, and 0.01% Triton X-100) with a compound dose-response titration for either 5 min or 20 hours (see Table 15). Following compound pre-incubation, purified SOS protein (aa 564-1049) and GTP (Roche 10106399001) were added to the assay wells and incubated for an additional 30 min. To determine the extent of inhibition of SOS-mediated nucleotide exchange, purified GST-tagged cRAF (aa 1-149), nickel chelate AlphaLISA acceptor beads (PerkinElmer AL108R), and AlphaScreen glutathione donor beads (PerkinElmer 6765302) were added to the assay wells and incubated for 10 minutes. The assay plates were then read on a PerkinElmer EnVision Multilabel Reader, using AlphaScreen® technology, and data were analyzed using a 4-parameter logistic model to calculate IC50 values.

[2] = molecular target: GDP-bound KRAS protein (aa 1-169) G12C/C118A (Homo sapiens (Human), UniProt P01116, C118A/G12C); assay: Coupled Nucleotide Exchange Assay (KRAS G12C); format: biochemical
Method: as §1

GDP-KRAS G12D = GDP-KRAS G12D (Homo sapiens, UniProt P01116, C118A/G12D); assay: GDP-KRAS G12D RF-MS Assay; format: binding; settings: 100 μM inhibitor, 20 h incubation, 2 uM KRAS G12D
Method: GDP-KRAS G12D RF-MS Assay: MS assays were performed in the following buffer: 25 mM HEPES pH 7.4, 20 mM MgCl2, 10 mM NaCl, 3% DMSO, 0.0005% CHAPS with 100 μM GDP made fresh and added to the assay buffer. The final concentration of KRAS G12D was 2 uM. Assay incubation times were 20 h and the inhibitor concentration was 100 μM. Greiner polypropylene clear V-bottom plates were used for the mass spectrometry assays. Typically, the reaction was initiated by addition of KRAS G12D to a well containing inhibitor followed by Rapidfire MS analysis. Relative % Bound values at the various incubation times were used to estimate a kobs value at 100 uM inhibitor.
RapidFire Sample Liquid handling System: The RapidFire liquid handling unit used was the RF 360 model. Solvents were delivered by Agilent 1260 Infinity pumps. The instrument control software was the Agilent RapidFire High Throughput MS-system software (v4.0.12333.14274). A single C4 Type A (Agilent technologies, G9203) SPE-cartridge was used for these experiments. A volume of 10 μL (sample loop determined) was removed from each well of a 384-well plate by using an aspiration time of 300 ms. The sample load/wash time was 6000 ms at a flow rate of 1.25 mL/min (H2O, 0.1% v/v formic acid, 0.05% v/v trifluoroacetic acid); elution time was 7000 ms (acetonitrile, 0.1% v/v formic acid, 0.05% v/v trifluoroacetic acid); re-equilibration time was 700 ms at a flow rate of 1.25 mL/min (H2O, 0.1% v/v formic acid, 0.05% v/v trifluoroacetic acid).
Mass Spectrometry: Mass spectrometric data was acquired on an Agilent 6530 quadrupole time-of-flight (ToF) MS system, operated with a dual Agilent Jet Spray (AJS) ion source, in positive ionization mode. The instrument parameters were as follows: gas temperature 350° C.; drying gas 5 L/min; nebulizer 60 psi; sheath gas 350° C.; sheath gas flow 11 L/min; capillary 3.5 kV (0.037 μA); nozzle 1.75 kV; fragmentor 200 V; skimmer 75 V; octapole RF 800 V peak-to-peak. Data was acquired at the rate of 5 spectra/s. The mass scale was calibrated using the Agilent positive ion tune mix, over the m/z range 300-3200. The instrument control software was Agilent MassHunter Workstation Data Acquisition (vB.05.01).
Mass Spectrometry Data Processing and Informatics: All data processing was performed using a HP Z620, 64-bit, 12-processor, Windows 7 PC, using a combination of Agilent MassHunter Qualitative Analysis (B.05.00) Agilent RapidFire control software (v4.0.12333.14070) and the Agilent DA Reprocessor Offline Utilities B.05.00, Build 162. The SPE-MS data acquired from the RapidFire-MS system is typically a single SPE-MS data file composed of multiple injection events. For effective charge state extraction, SPE-peak integration and subsequent MS-spectral deconvolution, the single SPE-MS data file is split into single injection events. This is typically performed off-line and achieved through the RapidFire User Interface software, using the Agilent RapidFire control software (v4.0.12333.14070) using the Convert MS Data option. Once the individual injection-event MS-data files have been produced, they are all batch processed using the DA Reprocessor Offline Utilities (B.05.00, Build 162, Agilent). For batch processing a method file was created using Agilent MassHunter Qualitative Analysis B.05.00. The details of this method file are contained within the BioConfirm Workflow and are as follows: Integrate (MS), Integrator Selection: General, smooth option selected; detector point sampling 1; start threshold 5.0; stop threshold 0.0; filtering 5 point; peak location, top. Extract (MS): Peak Spectrum Extraction (MS) within m/z 800-1400. Deconvolute (MS) Maximum Entropy: mass range 19,000-21,000 Daltons; Mass step 1.0 Da; S/N threshold 20.0; Use limited m/z range 800-1400; adduct proton; isotope peak width automatic; minimum consecutive charge states 5. […]

[3] = 5 min compound pre-incubation, read-out: GDP KRAS G12C 5 min Coupled Exchange IC50 IP
[4] = 20 h compound pre-incubation, read-out: GDP KRAS G12C 20 h Coupled Exchange IC50 IP

Chain of GDP-bound KRAS protein (aa 1-169) G12D/C118A (P01116 other isoform, or with tags, fused parts or gaps G12D/C118A): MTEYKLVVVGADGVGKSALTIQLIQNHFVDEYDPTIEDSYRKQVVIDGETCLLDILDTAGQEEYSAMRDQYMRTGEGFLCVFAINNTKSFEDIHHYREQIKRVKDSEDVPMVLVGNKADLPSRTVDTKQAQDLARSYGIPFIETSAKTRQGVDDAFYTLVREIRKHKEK
Chain of GDP-bound KRAS protein (aa 1-169) G12C/C118A (P01116 other isoform, or with tags, fused parts or gaps G12C/C118A): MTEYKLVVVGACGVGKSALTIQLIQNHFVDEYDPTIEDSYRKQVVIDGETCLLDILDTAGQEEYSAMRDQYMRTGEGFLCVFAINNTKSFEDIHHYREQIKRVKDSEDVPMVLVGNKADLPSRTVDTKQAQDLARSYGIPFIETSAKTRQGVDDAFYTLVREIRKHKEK

SMILES	IC50 [1] [µM]	IC50 [2, 3] [µM]	IC50 [2, 4] [µM]	GDP-KRAS G12D RF-MS 100 μM 20 h Relative % Bound (GDP-KRAS G12D) [%]
Cc1ccnc(C(C)C)c1-n1c(=O)nc(N2CC[C@H](NC(=O)C3CO3)C2)c2cc(Cl)c(-c3ccccc3F)nc21 (stereo partly drawn) [Example 35, N—((S)-1-(6-chloro-7-(2-fluorophenyl)-1-(2-isopropyl-4-methylpyridin-3-yl)-2-oxo-1,2-dihydropyrido[2,3-d]pyrimidin-4-yl)pyrrolidin-3-yl)oxirane-2-carboxamide]	> 250	167	1.36	3.4
Cc1ccnc(C(C)C)c1-n1c(=O)nc(N2C[C@@H](C)N(C(=O)[C@H]3CO3)C[C@@H]2C)c2cc(Cl)c(-c3c(N)cccc3F)nc21 [Example 37, 7-(2-Amino-6-fluorophenyl)-6-chloro-4-((2S,5R)-2,5-dimethyl-4-((R)-oxirane-2-carbonyl)piperazin-1-yl)-1-(2-isopropyl-4-methylpyridin-3-yl)pyrido[2,3-d]pyrimidin-2(1H)-one]	> 250	0.56	0.015	15.8
Cc1ccnc(C(C)C)c1-n1c(=O)nc(N2CCCC3C2CN3C(=O)C2CO2)c2cc(Cl)c(-c3ccccc3F)nc21 (centres unmarked) [Example 33, 6-Chloro-7-(2-fluorophenyl)-1-(2-isopropyl-4-methylpyridin-3-yl)-4-(7-(oxirane-2-carbonyl)-2,7-diazabicyclo[4.2.0]octan-2-yl)pyrido[2,3-d]pyrimidin-2(1H)-one]	> 250	60.9	0.261	2
Cc1ccnc(C(C)C)c1-n1c(=O)nc(N2CCN(C(=O)[C@H]3CO3)C[C@@H]2C)c2cc(Cl)c(-c3ccccc3F)nc21 (atropisomer, axis not shown) [Example 16, 6-Chloro-7-(2-fluorophenyl)-1-(2-isopropyl-4-methylpyridin-3-yl)-4-((S)-2-methyl-4-((R)-oxirane-2-carbonyl)piperazin-1-yl)pyrido[2,3-d]pyrimidin-2(1H)-one]	190	3.78	0.027	3.4
Cc1ccnc(C(C)C)c1-n1c(=O)nc(N[C@@H]2CCN(C(=O)C3CO3)C2)c2cc(Cl)c(-c3ccccc3F)nc21 (stereo partly drawn) [Example 32, 6-Chloro-7-(2-fluorophenyl)-1-(2-isopropyl-4-methylpyridin-3-yl)-4-(((3R)-1-(oxirane-2-carbonyl)pyrrolidin-3-yl)amino)pyrido[2,3-d]pyrimidin-2(1H)-one]	> 250	101	1.85	3.1
Cc1ccnc(C(C)C)c1-n1c(=O)nc(N2C[C@@H](C)N(C(=O)[C@H]3CO3)C[C@@H]2C)c2cc(Cl)c(-c3c(O)cccc3F)nc21 [Example 36, 6-Chloro-4-((2S,5R)-2,5-dimethyl-4-((R)-oxirane-2-carbonyl)piperazin-1-yl)-7-(2-fluoro-6-hydroxyphenyl)-1-(2-isopropyl-4-methylpyridin-3-yl)pyrido[2,3-d]pyrimidin-2(1H)-one]	> 250	0.653	0.024	8.1
Cc1ccnc(C(C)C)c1-n1c(=O)nc(NC2CN(C(=O)C3CO3)C2)c2cc(Cl)c(-c3ccccc3F)nc21 (centres unmarked) [Example 31, 6-Chloro-7-(2-fluorophenyl)-1-(2-isopropyl-4-methylpyridin-3-yl)-4-((1-(oxirane-2-carbonyl)azetidin-3-yl)amino)pyrido[2,3-d]pyrimidin-2(1H)-one]	> 250	146	1.57	2.2
Cc1ccnc(C(C)C)c1-n1c(=O)nc(N2CCC[C@H](NC(=O)C3CO3)C2)c2cc(Cl)c(-c3ccccc3F)nc21 (stereo partly drawn) [Example 34, N—((S)-1-(6-Chloro-7-(2-fluorophenyl)-1-(2-isopropyl-4-methylpyridin-3-yl)-2-oxo-1,2-dihydropyrido[2,3-d]pyrimidin-4-yl)piperidin-3-yl)oxirane-2-carboxamide]	> 250	> 250	> 250	2.9
Cc1ccnc(C(C)C)c1-n1c(=O)nc(N2CC3(CN(C(=O)C4CO4)C3)C2)c2cc(Cl)c(-c3ccccc3F)nc21 (centres unmarked) [Example 24, 6-Chloro-7-(2-fluorophenyl)-1-(2-isopropyl-4-methylpyridin-3-yl)-4-(6-(oxirane-2-carbonyl)-2,6-diazaspiro[3.3]heptan-2-yl)pyrido[2,3-d]pyrimidin-2(1H)-one]	> 250	222	41.6	–
Cc1ccnc(C(C)C)c1-n1c(=O)nc(N(C)C2CN(C(=O)[C@H]3CO3)C2)c2cc(Cl)c(-c3ccccc3F)nc21 [Example 30, (R)-6-chloro-7-(2-fluorophenyl)-1-(2-isopropyl-4-methylpyridin-3-yl)-4-(methyl(1-(oxirane-2-carbonyl)azetidin-3-yl)amino)pyrido[2,3-d]pyrimidin-2(1H)-one]	> 250	> 250	> 31.3	1.4
Cc1ccnc(C(C)C)c1-n1c(=O)nc(N2CCN(C(=O)[C@@H]3O[C@H]3C(=O)O)C[C@@H]2C)c2cc(Cl)c(-c3ccccc3F)nc21 [Example 20, (2R,3R)-3-((S)-4-(6-chloro-7-(2-fluorophenyl)-1-(2-isopropyl-4-methylpyridin-3-yl)-2-oxo-1,2-dihydropyrido[2,3-d]pyrimidin-4-yl)-3-methylpiperazine-1-carbonyl)oxirane-2-carboxylic acid]	> 250	–	1	–
